From patent publication US20260108483A1, “METHODS AND COMPOSITIONS FOR PREVENTING THE PROGRESSION OF DIABETIC RETINOPATHY AND RELATED CONDITIONS” (Opus Genetics, Inc., priority 2023, published 2026)

Test system: diabetic retinopathy (moderately severe to severe NPDR or mild PDR)
Assay: Phase 2 placebo-controlled clinical study: three or more step worsening in binocular Diabetic Retinopathy Severity Scale Score
Type: in vivo, human
Conditions: weeks 12 and 24; 600 mg/day oral (3+2 tablets of 120 mg) vs placebo
Excerpt: Ability of Compound 1 to prevent the progression of non-proliferative diabetic retinopathy (NPDR) and mild proliferative diabetic retinopathy (PDR) may be evaluated according to a clinical study in which Compound 1 was orally administered to patients suffering from non-proliferative diabetic retinopathy or mild proliferative diabetic retinopathy. Compound 1 has the chemical name (E)-2-((4,5-dimethoxy-2-methyl-3,6-dioxocyclohexa-1,4-dien-1-yl)methylene)undecanoic acid, and is depicted by the following chemical formula: The study was configured as a placebo-controlled, double-masked, randomized, Phase 2 study in approximately 100 subjects with moderately severe to severe NPDR (diabetic retinopathy severity score [DRSS] Level 47 or 53, see FIG. 1) or mild PDR (DRSS Level 61), evaluating safety and efficacy following administration of Compound 1 twice daily for 24 weeks. The study was configured for a 1:1 randomization (placebo: Compound 1). Randomization was stratified by level of disease severity (NPDR or PDR). Subjects with mild PDR were capped at 20% for each arm. Efficacy evaluations at 12 and/or 24 weeks included DRSS, center-involved diabetic macular edema (DME), moderate PDR or PDR-related adverse events (AEs), best-corrected visual acuity (BCVA), and central subfield thickness (CST). Further experimental procedures and results are described below. […]

CCCCCCCCC/C(=C\C1=C(C)C(=O)C(OC)=C(OC)C1=O)C(=O)O [Compound 1, (E)-2-((4,5-dimethoxy-2-methyl-3,6-dioxocyclohexa-1,4-dien-1-yl)methylene)undecanoic acid]
preventing the progression of diabetic retinopathy (patients with three or more step worsening in binocular DRSS, FIG. 3): effective in preventing the progression of diabetic retinopathy
